Experimental data reported in BindingDB's records for PubMed 1706470 (Abbott Laboratories, 1991).

Molecular target: T1, Gastrin/cholecystokinin type B receptor (Cavia porcellus, UniProt H0VZC5)
T1 sequence (H0VZC5 whole entry): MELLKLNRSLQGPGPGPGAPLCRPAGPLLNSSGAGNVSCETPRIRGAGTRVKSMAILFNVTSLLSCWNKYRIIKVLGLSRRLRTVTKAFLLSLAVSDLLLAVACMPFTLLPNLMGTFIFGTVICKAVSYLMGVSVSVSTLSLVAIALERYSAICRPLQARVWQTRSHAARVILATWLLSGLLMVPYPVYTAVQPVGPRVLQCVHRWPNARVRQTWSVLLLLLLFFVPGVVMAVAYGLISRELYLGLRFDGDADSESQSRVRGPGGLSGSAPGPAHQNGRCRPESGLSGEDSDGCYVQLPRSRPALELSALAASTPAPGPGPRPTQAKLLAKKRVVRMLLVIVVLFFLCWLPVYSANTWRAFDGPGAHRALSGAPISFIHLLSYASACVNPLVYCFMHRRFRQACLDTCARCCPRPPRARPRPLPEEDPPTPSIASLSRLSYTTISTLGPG

Ki: 0.51 µM
Structure (SMILES): CC(C)(C)OC(=O)NC(Cc1c[nH]c2ccccc12)C(=O)N(C(=O)C(N)Cc1ccccc1)C(=O)C(CC(=O)O)NC(=O)C(N)CCCCNC(=O)OCc1ccccc1 (stereo unspecified) [A-57282]
